Values quoted from earlier work as cited in patent publication US6500632B1, “Assay for screening inhibitors of C4 plant enzymes” (Australian Institute of Marine Science, priority 1998, dated 2002).

Columns and labels:
C4 plants = conditions: literature
[1] = molecular target: T1, phosphoenolpyruvate carboxylase (Zea mays, UniProt P04711); conditions: literature (Jenkins et al.; McFadden et al.)
T1 sequence (P04711 1-970): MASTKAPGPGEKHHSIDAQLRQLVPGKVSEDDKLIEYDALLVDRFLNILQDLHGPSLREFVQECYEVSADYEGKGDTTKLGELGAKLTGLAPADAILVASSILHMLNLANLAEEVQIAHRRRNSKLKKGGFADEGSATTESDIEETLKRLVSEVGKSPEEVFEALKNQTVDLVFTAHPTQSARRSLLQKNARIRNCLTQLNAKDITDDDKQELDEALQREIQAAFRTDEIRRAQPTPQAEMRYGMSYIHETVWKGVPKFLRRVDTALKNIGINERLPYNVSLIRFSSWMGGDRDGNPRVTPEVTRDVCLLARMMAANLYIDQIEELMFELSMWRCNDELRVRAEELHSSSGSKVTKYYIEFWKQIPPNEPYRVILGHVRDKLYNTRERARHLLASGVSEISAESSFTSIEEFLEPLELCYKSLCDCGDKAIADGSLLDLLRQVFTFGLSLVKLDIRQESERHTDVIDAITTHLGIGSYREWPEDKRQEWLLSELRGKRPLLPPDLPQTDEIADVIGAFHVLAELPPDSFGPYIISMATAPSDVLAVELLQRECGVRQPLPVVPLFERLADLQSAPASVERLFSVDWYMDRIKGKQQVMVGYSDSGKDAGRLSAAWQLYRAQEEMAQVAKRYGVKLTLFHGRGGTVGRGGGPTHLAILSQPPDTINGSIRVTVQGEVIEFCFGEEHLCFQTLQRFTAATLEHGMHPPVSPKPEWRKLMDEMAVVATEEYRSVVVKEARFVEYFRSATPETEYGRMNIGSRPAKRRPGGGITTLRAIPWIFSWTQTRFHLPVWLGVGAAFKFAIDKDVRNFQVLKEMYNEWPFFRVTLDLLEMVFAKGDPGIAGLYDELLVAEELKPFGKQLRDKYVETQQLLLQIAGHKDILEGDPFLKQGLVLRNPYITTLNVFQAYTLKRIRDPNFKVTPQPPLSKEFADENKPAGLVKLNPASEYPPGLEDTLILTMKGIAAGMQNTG

inhibition of a C4 enzyme (phosphoenolpyruvate carboxylase) [1]: specifically inhibited
Substance: 3,3-dichloro-2(dihydroxy-phosphinoylmethyl)propenoate
effect on the growth of C4 plants (C4 plants): no effect
